pIC50: −log10 of the molar value.
How the values were obtained:
[1] = biological target: human sodium channel NaV1.2 (Homo sapiens, UniProt Q99250); experiment: NaV1.2 inhibition, automated patch-clamp (Q-Patch HTX), slow inactivated state (state C); type: cell-based; conditions: hNaV1.2 CHO cells, slow inactivated state; for pIC50: read-out: NaV1.2 IC50; for inhibition at 10 µM: 10 μM compound, read-out: NaV1.2 (% inh), 10 μM; for inhibition at 1 µM: 1 μM compound, read-out: NaV1.2 (% inh), 1 μM
Excerpt: In vitro method for NaV1.2 inhibition assays: The methods utilized to assess the inhibitory activity of compounds on NaV1.2 were based on the methods described by Liu et al. [Liu Y, Beck E J, & Flores C M (2011): Validation of a patch clamp screening protocol that simultaneously measures compound activity in multiple states of the voltage-gated sodium channel Nav1.2. Assay Drug Development Technology 9, 628-634]. For these electrophysiology assays, a cell line (Chinese Hamster Ovarian K-1 cells (CHO K-1)) engineered to stably express human sodium channel NaV1.2 was purchased from Millipore Corporation (catalog no. CYL3023). The electrophysiology measurements were performed using automated patch-clamp methods on a Q-Patch HTX instrument by scientists at Evotec AG under contract with Sunovion.
The solutions utilized for the Qpatch experiments were similar buffered solutions to those described by Liu et al. [Liu Y, Beck E J, & Flores C M (2011)]. The extracellular solution contained 140 millimolar sodium chloride, 4 millimolar potassium chloride, 2 millimolar calcium chloride, 1 millimolar magnesium chloride, 10 millimolar 4-(2-hydroxyethyl)-1-piperazineethanesulfonic acid (HEPES), and 10 millimolar glucose (pH adjusted to 7.4 with sodium hydroxide). The intracellular solution contained 100 millimolar cesium fluoride, 45 millimolar cesium chloride, 10 millimolar HEPES, 5 millimolar ethylene glycol tetraacetic acid (EGTA), and 5 millimolar glucose (pH adjusted to 7.2 with cesium hydroxide).
The biophysical experiments of Lui et al. [Liu Y, Beck E J, & Flores C M (2011)] were replicated to assess the fast, slow and total inactivation characteristics of the human Nav1.2 channel
Based upon results from studies of the fast, slow and total inactivation characteristics of the human Nav1.2 channel, a voltage protocol involving a sequence of consecutive pulses of current was used to measure channel activity in several states [Liu Y, Beck E J, & Flores C M (2011)]. The monolayer of CHO K-1 cells stably expressing human sodium channel NaV1.2 (hNaV1.2 CHO cells) was maintained in the Qpatch instrument at a potential of −100 millivolts (mV) except when the voltage protocol was being executed. The first pulse in the protocol involved a 100 millisecond depolarization to 0 mV to enable measurement of channel availability in the closed state (state A). The potential was then maintained at −90 mV for 15 milliseconds, followed by a five millisecond period of depolarization to 0 mV to enable measurement of channel availability after partial recovery from fast inactivation (state B). Next, the potential was maintained at −90 mV for 300 milliseconds, followed by ten seconds at −50 mV, 15 milliseconds at −90 mV, and finally another five millisecond period of depolarization to 0 mV to enable measurement of channel availability after additional recovery from fast inactivation and significant entry into the slow inactivated state (state C). Finally, after an additional 300 millisecond period at −90 mV, another five millisecond period of depolarization to 0 mV was employed to enable measurement of channel availability after partial recovery from the slow inactivated state (state D). Measurements of activity at state C were used to assess the activity of the NaV1.2 channel in the slow inactivated state. Comparison of activity after addition of test compounds or reference compounds with activity after addition of vehicle only provided a measure of percent remaining activity from which percent inhibition was calculated. […] A slight modification of this protocol was utilized to provide measurements as a function of compound concentration, which enabled IC50 values to be determined. IC50 values were calculated by non-linear least squares regression of the data (percent inhibition of ion channel NaV1.2 activity in the slow inactivated state) onto equation (1): % inhibition=100%/(1+(IC50/[compound]) equation (1)
J Pharmacol Exp Ther. 2008 July; 326(1):89-99.].

[2] = biological target: T1, recombinant human serotonin receptor 5-HT2A (Homo sapiens, UniProt P28223); experiment: 5-HT2A antagonist Ca2+ assay in CHO-K1 cells (method A aequorin luminescence / method B FLIPR fluorescence); type: cell-based; conditions: antagonist mode vs EC80 of reference agonist, method A or B, read-out: 5HT2A IC50
T1 construct: expressed in transfected cells; method B: loaded with Ca2+ dye
Summary of the method: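 IC50 was obtained by nonlinear regression of percent inhibition of the EC80 agonist Ca2+ response in CHO-K1 cells stably expressing human 5-HT2A. The readout was aequorin luminescence with agonist injected 15 min after compound (A), or Ca2+-dye fluorescence on FLIPR with serotonin as agonist (B).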

Chain of human sodium channel NaV1.2 (Q99250 whole entry): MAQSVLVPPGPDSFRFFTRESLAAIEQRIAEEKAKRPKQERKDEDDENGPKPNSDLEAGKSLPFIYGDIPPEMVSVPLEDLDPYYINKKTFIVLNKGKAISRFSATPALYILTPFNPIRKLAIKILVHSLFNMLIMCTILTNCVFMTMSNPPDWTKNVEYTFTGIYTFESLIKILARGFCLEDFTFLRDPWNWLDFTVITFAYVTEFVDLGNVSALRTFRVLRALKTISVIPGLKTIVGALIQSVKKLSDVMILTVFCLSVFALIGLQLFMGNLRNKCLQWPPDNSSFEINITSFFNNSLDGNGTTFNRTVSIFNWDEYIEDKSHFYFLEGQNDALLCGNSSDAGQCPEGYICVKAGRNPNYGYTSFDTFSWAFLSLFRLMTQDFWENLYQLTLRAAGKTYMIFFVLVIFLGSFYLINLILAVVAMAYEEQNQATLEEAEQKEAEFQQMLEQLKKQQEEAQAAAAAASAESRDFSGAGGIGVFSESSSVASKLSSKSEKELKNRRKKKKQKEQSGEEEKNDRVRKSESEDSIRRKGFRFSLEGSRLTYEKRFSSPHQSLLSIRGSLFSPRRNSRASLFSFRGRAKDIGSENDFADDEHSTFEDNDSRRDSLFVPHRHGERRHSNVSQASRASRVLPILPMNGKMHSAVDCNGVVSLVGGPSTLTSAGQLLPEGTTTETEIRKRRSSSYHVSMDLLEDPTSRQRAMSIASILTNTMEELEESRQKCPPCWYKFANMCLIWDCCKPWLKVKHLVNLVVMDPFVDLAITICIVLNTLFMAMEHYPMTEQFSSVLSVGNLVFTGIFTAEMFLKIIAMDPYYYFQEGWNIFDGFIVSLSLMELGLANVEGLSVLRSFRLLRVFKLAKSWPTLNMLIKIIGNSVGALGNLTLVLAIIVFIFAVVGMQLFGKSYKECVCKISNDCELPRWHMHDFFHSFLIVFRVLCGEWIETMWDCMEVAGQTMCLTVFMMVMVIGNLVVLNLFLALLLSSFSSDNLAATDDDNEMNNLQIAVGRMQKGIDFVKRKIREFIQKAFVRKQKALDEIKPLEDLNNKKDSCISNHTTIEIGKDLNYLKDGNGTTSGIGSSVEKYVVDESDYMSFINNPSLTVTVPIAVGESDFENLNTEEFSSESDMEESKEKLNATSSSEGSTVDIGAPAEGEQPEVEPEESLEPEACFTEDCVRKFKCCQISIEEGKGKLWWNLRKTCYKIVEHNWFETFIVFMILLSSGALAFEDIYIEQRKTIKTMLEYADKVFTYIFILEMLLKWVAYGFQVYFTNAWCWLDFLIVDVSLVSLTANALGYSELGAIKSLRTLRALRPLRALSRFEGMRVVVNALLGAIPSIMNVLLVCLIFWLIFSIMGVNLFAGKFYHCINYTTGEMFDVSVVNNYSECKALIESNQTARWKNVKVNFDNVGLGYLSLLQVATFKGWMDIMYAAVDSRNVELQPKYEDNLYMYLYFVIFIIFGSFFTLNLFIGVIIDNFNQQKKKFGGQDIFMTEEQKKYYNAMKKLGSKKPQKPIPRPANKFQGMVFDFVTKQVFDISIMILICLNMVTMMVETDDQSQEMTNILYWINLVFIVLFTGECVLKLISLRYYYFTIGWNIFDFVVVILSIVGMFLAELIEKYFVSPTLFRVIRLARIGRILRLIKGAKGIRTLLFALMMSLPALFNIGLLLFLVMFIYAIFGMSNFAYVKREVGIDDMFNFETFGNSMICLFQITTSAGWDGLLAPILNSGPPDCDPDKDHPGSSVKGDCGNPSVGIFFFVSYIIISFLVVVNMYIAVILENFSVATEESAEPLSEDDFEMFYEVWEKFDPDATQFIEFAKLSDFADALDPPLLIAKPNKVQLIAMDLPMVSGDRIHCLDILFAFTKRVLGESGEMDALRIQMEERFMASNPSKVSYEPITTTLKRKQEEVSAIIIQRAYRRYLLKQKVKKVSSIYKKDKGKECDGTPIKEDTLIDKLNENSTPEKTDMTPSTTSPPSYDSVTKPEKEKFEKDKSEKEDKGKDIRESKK
T1 sequence (P28223 whole entry): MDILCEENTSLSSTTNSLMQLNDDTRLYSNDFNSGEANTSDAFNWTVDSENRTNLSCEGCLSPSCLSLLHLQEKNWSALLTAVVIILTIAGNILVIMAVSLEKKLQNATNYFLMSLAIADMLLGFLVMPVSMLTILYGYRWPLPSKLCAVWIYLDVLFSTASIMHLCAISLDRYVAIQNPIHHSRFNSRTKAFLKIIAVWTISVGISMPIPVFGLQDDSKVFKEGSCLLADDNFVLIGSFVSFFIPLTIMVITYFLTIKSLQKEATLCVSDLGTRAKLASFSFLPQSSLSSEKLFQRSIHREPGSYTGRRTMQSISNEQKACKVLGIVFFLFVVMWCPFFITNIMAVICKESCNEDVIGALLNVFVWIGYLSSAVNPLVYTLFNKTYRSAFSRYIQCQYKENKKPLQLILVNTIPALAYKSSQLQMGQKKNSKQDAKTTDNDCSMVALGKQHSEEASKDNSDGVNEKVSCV

Row | Compound | pIC50 [1] | pIC50 [2] | inhibition at 10 µM [1] | inhibition at 1 µM [1]
1 | Cc1cccc(N2CCN(CC3(O)COCc4ccccc43)CC2)c1C (stereo not shown) [Example 56, 4-((4-(2,3-dimethylphenyl)piperazin-1-yl)methyl)isochroman-4-ol] | 6.37 | 6.89 | – | –
2 | Cc1cccc(N2CCN(CC3COCc4ccccc43)CC2)c1C (stereo not shown) [Example 57, 1-(2,3-dimethylphenyl)-4-(isochroman-4-ylmethyl)piperazine] | – | 7.00 | 83% | –
3 | Clc1cccc(N2CCN(Cn3c(COc4ccccc4)nc4ccccc43)CC2)c1 [Example 61, 1-((4-(3-chlorophenyl)piperazin-1-yl)methyl)-2-(phenoxymethyl)-1H-benzo[d]imidazole] | – | 6.70 | 8% | –
4 | O=C1CCC(c2ccc(F)cc2)=NN1CN1CCN(c2cccc(Cl)c2)CC1 [Example 62, 2-((4-(3-chlorophenyl)piperazin-1-yl)methyl)-6-(4-fluorophenyl)-4,5-dihydropyridazin-3(2H)-one] | 5.28 | 7.30 | – | –
5 | O=C1c2ccccc2CCN1CCN1CCN(c2ccccc2)CC1 [Example 63, 2-(2-(4-phenylpiperazin-1-yl)ethyl)-3,4-dihydroisoquinolin-1(2H)-one] | – | 6.35 | – | 16%
6 | Clc1cccc(N2CCN(CCc3ccccc3)CC2)c1 [Example 64, 1-(3-chlorophenyl)-4-phenethylpiperazine] | – | 7.40 | 93% | –
7 | O=C(CN1CCN(c2cccc(Cl)c2)CC1)c1ccccc1 [Example 66, 2-(4-(3-chlorophenyl)piperazin-1-yl)-1-phenylethan-1-one] | – | 6.05 | 55% | –
8 | N#Cc1ccc(OCCN2CCN(c3nsc4ccccc34)CC2)cc1 [Example 67, 4-(2-(4-(benzo[d]isothiazol-3-yl)piperazin-1-yl)ethoxy)benzomtnle] | – | 8.00 | 85% | –
9 | COc1cccc(OCCN2CCN(c3nsc4ccccc34)CC2)c1 [Example 68, 3-(4-(2-(3-methoxyphenoxy)ethyl)piperazin-1-yl)benzo[d]isothiazole] | 6.14 | 8.40 | – | –
10 | Clc1ccccc1OCCN1CCN(c2nsc3ccccc23)CC1 [Example 69, 3-(4-(2-(2-chlorophenoxy)ethyl)piperazin-1-yl)benzo[d]isothiazole] | – | 8.52 | 91% | –
11 | c1ccc(OCCN2CCN(c3nsc4ccccc34)CC2)cc1 [Example 70, 3-(4-(2-phenoxyethyl)piperazin-1-yl)benzo[d]isothiazole] | 5.77 | 8.40 | – | –
12 | Fc1ccc(OCCCN2CCN(c3nsc4ccccc34)CC2)cc1 [Example 73, 3-(4-(3-(4-fluorophenoxy)propyl)piperazin-1-yl)benzo[d]isothiazole] | – | 8.70 | 91% | –
13 | OC(COC1CCCCC1)CN1CCN(c2ccccc2)CC1 (stereo not shown) [Example 74, 1-(cyclohexyloxy)-3-(4-phenylpiperazin-1-yl)propan-2-ol] | 4.29 | 7.22 | – | –
14 | OC(COC1CCCCC1)CN1CCN(Cc2ccccc2)CC1 (stereo not shown) [Example 75, 1-(4-benzylpiperazin-1-yl)-3-(cyclohexyloxy)propan-2-ol] | – | < 5.38 | 21% | –
15 | Cc1ccc(N2CCN(CC(O)COC3CCCCC3)CC2)cc1 (stereo not shown) [Example 76, 1-(cyclohexyloxy)-3-(4-(p-tolyl)piperazin-1-yl)propan-2-ol] | 6.62 | 7.70 | – | –
16 | Cc1ccc(N2CCN(C[C@H](O)COC3CCCCC3)CC2)cc1 [Example 77, (S)-1-(cyclohexyloxy)-3-(4-(p-tolyl)piperazin-1-yl)propan-2-ol] | 5.04 | 6.68 | – | –
17 | Cc1ccc(N2CCN(C[C@@H](O)COC3CCCCC3)CC2)cc1 [Example 78, (R)-1-(cyclohexyloxy)-3-(4-(p-tolyl)piperazin-1-yl)propan-2-ol] | 5.33 | < 5.00 | – | –
18 | Cc1cccc(N2CCN(CC(O)COC3COc4ccccc43)CC2)c1C (stereo not shown) [Example 80, 1-((2,3-dihydrobenzofuran-3-yl)oxy)-3-(4-(2,3-dimethylphenyl)piperazin-1-yl)propan-2-ol] | 6.77 | 7.22 | – | –
19 | Cc1cccc(N2CCN(CC(O)COC3(C)COc4ccccc43)CC2)c1C (stereo not shown) [Example 81, 1-(4-(2,3-dimethylphenyl)piperazin-1-yl)-3-((3-methyl-2,3-dihydrobenzofuran-3-yl)oxy)propan-2-ol] | 6.80 | 7.52 | – | –
20 | Cc1cccc(N2CCN(CC(O)COC3COc4cccnc43)CC2)c1C (stereo not shown) [Example 82, 1-((2,3-dihydrofuro[3,2-b]pyridin-3-yl)oxy)-3-(4-(2,3-dimethylphenyl)piperazin-1-yl)propan-2-ol] | 5.87 | 7.40 | – | –
21 | OC(COC1CCCc2ccccc21)CN1CCN(Cc2ccccc2)CC1 (stereo not shown) [Example 83, 1-(4-benzylpiperazin-1-yl)-3-((1,2,3,4-tetrahydronaphthalen-1-yl)oxy) propan-2-ol] | 7.70 | 5.54 | – | –
22 | O[C@@H](CO[C@H]1CCCc2ccccc21)CN1CCN(Cc2ccccc2)CC1 [Example 85, (R)-1-(4-benzylpiperazin-1-yl)-3-(((S)-1,2,3,4-tetrahydronaphthalen-1-yl)oxy)propan-2-ol] | – | < 4.92 | – | 24%
23 | O[C@H](CO[C@H]1CCCc2ccccc21)CN1CCN(Cc2ccccc2)CC1 [Example 87, (S)-1-(4-benzylpiperazin-1-yl)-3-(((S)-1,2,3,4-tetrahydronaphthalen-1-yl)oxy)propan-2-ol] | – | 5.44 | – | 15%
24 | CCC(=O)c1ccc(OCC(O)CN2CCN(c3ccccc3)CC2)cc1 (stereo not shown) [Example 88, 1-(4-(2-hydroxy-3-(4-phenylpiperazin-1-yl)propoxy)phenyl)propan-1-one] | 4.51 | 6.24 | – | –
25 | OC(COc1ccccc1)CN1CCN(c2cccc(Cl)c2)CC1 (stereo not shown) [Example 89, 1-(4-(3-chlorophenyl)piperazin-1-yl)-3-phenoxypropan-2-ol] | 6.36 | 7.15 | – | –
26 | CC(=O)Nc1ccc(OCC(O)CN2CCN(c3ccc(C)c(Cl)c3)CC2)cc1 (stereo not shown) [Example 90, N-(4-(3-(4-(3-chloro-4-methylphenyl)piperazin-1-yl)-2-hydroxypropoxy)phenyl)acetamide] | 4.23 | 8.00 | – | –
27 | Cc1ccccc1OCC(O)CN1CCC(c2nc3ccccc3s2)CC1 (stereo not shown) [Example 91, 1-(4-(benzo[d]thiazol-2-yl)piperidin-1-yl)-3-(o-tolyloxy)propan-2-ol] | 6.77 | 7.70 | – | –
28 | COc1ccccc1N1CCN(CC(O)COc2cccc3ccccc23)CC1 (stereo not shown) [Example 92, 1-(4-(2-methoxyphenyl)piperazin-1-yl)-3-(naphthalen-1-yloxy)propan-2-ol] | 8.00 | 6.64 | – | –
29 | COc1ccc2c(c1)C(CN1CCC(Oc3ccccn3)CC1)CC2 (stereo not shown) [Example 95, 2-((1-((6-methoxy-2,3-dihydro-1H-inden-1-yl)methyl)piperidin-4-yl)oxy)pyridine] | – | 6.82 | – | 9%

Reference: patent US11186564B2, “Dual NAV1.2/5HT2a inhibitors for treating CNS disorders” (Sunovion Pharmaceuticals Inc., priority 2016, dated 2021)
